Values quoted from earlier work as cited in patent US8057811B2 (Douglas Pharmaceuticals Limited, priority 2003, dated 2011).

solubility in water: practically insoluble in water
SMILES: CN1CCN(C2=Nc3cc(Cl)ccc3Nc3ccccc32)CC1 [Clozapine]
